Values quoted from earlier work, collected in US20150119339A1, “USE OF HMB TO IMPROVE HEALTH OUTCOMES FOR HOSPITALIZED PATIENTS” (ABBOTT LABORATORIES, priority 2012, published 2015).

Conditions: three grams of HMB; older (70±1 yr) men and women; 10 days voluntary bed rest; not statistically different

Structure (SMILES): CC(C)(O)CC(=O)O [HMB, 3-hydroxy-3-methylbutanoic acid]
- loss of lean body mass: less loss of lean body mass
